Laboratory results taken from ChEMBL document CHEMBL5291721, “A preclinical secondary pharmacology resource illuminates target-adverse drug reaction associations of marketed drugs” (Nat Commun, 2023).

Key:
Glucocorticoid receptor [1] = molecular target: T1, Glucocorticoid receptor (Homo sapiens, UniProt P04150); format: functional
T1 sequence (P04150 whole entry): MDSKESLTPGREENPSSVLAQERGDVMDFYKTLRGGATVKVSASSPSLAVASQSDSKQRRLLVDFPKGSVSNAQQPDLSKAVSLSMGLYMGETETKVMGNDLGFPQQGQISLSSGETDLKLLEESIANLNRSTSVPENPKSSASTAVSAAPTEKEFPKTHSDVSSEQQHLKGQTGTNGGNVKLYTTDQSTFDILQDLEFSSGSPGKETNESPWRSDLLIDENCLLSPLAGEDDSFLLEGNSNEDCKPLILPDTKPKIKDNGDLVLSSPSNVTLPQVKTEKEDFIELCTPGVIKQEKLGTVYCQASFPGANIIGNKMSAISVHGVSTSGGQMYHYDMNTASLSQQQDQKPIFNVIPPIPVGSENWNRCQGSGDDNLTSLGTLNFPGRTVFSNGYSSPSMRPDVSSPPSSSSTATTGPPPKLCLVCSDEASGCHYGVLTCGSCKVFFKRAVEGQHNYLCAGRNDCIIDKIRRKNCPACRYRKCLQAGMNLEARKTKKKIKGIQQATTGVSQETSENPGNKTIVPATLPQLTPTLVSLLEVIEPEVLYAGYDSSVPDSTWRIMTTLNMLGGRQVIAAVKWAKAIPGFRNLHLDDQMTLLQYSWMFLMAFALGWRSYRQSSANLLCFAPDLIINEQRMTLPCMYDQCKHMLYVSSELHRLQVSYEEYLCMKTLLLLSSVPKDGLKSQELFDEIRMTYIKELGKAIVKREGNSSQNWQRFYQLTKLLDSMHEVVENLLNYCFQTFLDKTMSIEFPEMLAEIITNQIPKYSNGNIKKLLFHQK

[2] = molecular target: T2, Peroxisome proliferator-activated receptor gamma (Homo sapiens, UniProt P37231); format: functional
T2 sequence (P37231 whole entry): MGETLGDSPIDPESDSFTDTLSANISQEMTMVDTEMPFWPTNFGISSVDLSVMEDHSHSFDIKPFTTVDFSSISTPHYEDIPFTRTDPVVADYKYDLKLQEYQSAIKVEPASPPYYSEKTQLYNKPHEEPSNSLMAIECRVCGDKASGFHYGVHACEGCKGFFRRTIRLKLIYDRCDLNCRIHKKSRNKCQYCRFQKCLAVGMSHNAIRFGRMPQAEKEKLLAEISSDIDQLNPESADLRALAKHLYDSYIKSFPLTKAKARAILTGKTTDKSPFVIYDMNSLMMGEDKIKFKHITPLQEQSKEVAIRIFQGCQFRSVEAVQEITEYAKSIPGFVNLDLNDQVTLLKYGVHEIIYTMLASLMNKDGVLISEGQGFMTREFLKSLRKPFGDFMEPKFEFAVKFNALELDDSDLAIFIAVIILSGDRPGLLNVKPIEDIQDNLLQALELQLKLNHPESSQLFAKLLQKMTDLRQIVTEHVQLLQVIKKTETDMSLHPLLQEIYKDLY

[3] = molecular target: T2, Peroxisome proliferator-activated receptor gamma; format: functional; remark: listed apart in the source
Glucocorticoid receptor [4] = molecular target: T1, Glucocorticoid receptor; format: functional; remark: listed apart in the source
[5] = molecular target: Epidermal growth factor receptor (Homo sapiens, UniProt P00533); format: functional
[6] = molecular target: Gamma-aminobutyric acid receptor subunit alpha-1/alpha-2/beta-2/gamma-2 (Homo sapiens, UniProt P14867+P18507+P47869+P47870); format: functional, cell-based
[7] = molecular target: Receptor tyrosine-protein kinase erbB-2 (Homo sapiens, UniProt P04626); format: functional
[8] = molecular target: Gamma-aminobutyric acid receptor subunit alpha-1 (Rattus norvegicus, UniProt P62813)
Progesterone receptor = molecular target: T3, Progesterone receptor (Homo sapiens, UniProt P06401)
T3 sequence (P06401 whole entry): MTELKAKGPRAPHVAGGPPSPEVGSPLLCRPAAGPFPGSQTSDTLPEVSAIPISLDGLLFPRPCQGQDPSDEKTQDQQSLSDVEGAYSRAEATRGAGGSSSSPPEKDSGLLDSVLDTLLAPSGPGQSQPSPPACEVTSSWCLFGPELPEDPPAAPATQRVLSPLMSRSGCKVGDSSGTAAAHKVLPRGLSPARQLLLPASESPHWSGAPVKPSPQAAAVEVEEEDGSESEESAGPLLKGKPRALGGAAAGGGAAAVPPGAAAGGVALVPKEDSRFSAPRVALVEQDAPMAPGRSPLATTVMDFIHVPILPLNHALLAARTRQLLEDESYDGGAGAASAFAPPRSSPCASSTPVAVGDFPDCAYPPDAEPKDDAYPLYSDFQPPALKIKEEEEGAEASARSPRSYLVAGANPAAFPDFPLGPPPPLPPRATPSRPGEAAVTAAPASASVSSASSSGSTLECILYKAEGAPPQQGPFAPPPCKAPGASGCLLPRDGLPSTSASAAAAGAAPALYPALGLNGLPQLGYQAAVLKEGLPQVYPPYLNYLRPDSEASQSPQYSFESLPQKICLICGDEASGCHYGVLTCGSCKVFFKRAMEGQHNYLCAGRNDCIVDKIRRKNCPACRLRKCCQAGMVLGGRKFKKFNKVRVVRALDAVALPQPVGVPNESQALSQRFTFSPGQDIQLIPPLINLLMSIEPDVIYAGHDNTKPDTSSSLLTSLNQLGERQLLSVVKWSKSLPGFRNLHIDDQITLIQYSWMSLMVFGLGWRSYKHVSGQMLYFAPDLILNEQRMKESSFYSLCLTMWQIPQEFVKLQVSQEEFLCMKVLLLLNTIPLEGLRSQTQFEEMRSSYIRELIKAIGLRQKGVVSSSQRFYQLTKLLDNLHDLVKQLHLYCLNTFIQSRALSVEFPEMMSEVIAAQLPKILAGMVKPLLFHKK
Further: assay procedure not described here.

Gamma-aminobutyric acid receptor subunit alpha-1/alpha-2/beta-2/gamma-2, sequence (P14867 whole entry): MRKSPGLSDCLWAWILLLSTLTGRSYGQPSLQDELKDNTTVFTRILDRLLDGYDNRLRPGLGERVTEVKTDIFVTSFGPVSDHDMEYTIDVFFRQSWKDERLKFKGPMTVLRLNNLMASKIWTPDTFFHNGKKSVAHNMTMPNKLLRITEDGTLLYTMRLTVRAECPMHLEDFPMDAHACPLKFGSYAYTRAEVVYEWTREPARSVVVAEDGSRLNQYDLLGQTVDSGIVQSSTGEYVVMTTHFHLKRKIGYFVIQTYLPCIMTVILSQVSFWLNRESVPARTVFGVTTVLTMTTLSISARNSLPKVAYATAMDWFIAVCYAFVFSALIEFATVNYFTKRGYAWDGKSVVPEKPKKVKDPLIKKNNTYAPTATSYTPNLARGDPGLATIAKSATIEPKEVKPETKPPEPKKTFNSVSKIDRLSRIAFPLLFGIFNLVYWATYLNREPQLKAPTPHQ
Gamma-aminobutyric acid receptor subunit alpha-1/alpha-2/beta-2/gamma-2, sequence (P47870 whole entry): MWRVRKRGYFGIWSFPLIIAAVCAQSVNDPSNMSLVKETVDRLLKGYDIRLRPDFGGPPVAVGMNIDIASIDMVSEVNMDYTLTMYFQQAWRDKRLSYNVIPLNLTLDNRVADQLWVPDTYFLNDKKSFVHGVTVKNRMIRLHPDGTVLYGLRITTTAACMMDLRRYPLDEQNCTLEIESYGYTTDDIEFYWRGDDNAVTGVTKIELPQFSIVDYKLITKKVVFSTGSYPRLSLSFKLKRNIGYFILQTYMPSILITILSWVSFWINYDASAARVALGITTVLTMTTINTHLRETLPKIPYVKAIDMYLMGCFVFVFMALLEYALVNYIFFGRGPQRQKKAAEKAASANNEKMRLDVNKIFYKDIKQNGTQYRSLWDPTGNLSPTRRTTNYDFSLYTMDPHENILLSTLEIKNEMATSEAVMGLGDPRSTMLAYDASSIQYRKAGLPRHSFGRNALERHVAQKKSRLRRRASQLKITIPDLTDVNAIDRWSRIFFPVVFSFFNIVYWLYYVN
Gamma-aminobutyric acid receptor subunit alpha-1/alpha-2/beta-2/gamma-2, sequence (P18507 whole entry): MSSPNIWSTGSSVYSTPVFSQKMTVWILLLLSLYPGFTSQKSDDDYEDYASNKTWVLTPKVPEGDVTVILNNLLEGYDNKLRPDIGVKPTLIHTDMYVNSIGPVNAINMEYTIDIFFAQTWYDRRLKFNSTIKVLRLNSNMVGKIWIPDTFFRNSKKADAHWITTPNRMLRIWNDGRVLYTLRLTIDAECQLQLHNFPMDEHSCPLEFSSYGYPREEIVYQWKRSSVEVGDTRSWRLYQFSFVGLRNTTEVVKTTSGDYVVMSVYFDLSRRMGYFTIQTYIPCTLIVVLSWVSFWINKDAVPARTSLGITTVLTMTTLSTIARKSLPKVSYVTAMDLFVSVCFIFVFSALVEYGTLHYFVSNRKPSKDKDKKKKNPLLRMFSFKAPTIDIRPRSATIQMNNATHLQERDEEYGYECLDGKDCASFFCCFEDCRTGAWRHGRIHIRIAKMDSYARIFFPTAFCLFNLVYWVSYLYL
Gamma-aminobutyric acid receptor subunit alpha-1/alpha-2/beta-2/gamma-2, sequence (P47869 whole entry): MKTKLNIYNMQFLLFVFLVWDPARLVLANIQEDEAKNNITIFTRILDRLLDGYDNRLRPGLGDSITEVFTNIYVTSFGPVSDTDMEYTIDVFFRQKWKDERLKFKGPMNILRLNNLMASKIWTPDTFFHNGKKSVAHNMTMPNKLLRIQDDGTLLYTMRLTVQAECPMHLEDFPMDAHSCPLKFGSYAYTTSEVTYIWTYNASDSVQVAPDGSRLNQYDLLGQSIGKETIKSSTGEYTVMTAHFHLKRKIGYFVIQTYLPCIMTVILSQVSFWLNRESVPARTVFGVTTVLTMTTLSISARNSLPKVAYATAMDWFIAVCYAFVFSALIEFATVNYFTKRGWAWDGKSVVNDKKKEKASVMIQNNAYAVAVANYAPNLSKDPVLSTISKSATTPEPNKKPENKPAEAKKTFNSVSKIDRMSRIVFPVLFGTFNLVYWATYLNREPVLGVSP
Epidermal growth factor receptor, sequence (P00533 whole entry): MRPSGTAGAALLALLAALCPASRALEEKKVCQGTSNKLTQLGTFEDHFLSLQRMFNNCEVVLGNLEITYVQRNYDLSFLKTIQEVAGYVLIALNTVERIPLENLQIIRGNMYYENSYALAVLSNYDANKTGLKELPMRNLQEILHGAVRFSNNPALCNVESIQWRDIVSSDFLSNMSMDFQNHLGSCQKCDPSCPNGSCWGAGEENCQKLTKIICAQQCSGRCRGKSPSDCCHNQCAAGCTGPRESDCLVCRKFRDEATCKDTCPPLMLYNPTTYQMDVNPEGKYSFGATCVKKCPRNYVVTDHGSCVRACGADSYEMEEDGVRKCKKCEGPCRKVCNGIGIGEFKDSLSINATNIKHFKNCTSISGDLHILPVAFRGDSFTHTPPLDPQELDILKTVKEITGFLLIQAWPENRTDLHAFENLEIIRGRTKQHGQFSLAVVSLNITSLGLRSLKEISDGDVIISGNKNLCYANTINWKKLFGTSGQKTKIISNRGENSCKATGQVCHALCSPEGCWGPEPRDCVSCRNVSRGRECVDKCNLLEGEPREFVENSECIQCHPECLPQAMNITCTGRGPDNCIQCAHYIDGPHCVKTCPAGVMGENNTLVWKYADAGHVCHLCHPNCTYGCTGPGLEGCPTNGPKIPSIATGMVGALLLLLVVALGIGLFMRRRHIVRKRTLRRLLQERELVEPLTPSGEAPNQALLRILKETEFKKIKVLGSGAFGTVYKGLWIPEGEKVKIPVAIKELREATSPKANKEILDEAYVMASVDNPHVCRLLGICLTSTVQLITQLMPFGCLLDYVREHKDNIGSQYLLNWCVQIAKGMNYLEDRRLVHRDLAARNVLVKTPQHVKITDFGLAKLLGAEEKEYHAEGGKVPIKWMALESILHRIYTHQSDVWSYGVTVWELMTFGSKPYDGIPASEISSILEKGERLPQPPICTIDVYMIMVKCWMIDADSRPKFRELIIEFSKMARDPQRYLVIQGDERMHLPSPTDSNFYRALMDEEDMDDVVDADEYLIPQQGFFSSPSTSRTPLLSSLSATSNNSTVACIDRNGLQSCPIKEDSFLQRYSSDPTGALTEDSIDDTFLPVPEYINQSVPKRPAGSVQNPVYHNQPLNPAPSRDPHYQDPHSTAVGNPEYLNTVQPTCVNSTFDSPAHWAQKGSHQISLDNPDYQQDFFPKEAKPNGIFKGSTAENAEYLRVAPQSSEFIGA
Receptor tyrosine-protein kinase erbB-2, sequence (P04626 whole entry): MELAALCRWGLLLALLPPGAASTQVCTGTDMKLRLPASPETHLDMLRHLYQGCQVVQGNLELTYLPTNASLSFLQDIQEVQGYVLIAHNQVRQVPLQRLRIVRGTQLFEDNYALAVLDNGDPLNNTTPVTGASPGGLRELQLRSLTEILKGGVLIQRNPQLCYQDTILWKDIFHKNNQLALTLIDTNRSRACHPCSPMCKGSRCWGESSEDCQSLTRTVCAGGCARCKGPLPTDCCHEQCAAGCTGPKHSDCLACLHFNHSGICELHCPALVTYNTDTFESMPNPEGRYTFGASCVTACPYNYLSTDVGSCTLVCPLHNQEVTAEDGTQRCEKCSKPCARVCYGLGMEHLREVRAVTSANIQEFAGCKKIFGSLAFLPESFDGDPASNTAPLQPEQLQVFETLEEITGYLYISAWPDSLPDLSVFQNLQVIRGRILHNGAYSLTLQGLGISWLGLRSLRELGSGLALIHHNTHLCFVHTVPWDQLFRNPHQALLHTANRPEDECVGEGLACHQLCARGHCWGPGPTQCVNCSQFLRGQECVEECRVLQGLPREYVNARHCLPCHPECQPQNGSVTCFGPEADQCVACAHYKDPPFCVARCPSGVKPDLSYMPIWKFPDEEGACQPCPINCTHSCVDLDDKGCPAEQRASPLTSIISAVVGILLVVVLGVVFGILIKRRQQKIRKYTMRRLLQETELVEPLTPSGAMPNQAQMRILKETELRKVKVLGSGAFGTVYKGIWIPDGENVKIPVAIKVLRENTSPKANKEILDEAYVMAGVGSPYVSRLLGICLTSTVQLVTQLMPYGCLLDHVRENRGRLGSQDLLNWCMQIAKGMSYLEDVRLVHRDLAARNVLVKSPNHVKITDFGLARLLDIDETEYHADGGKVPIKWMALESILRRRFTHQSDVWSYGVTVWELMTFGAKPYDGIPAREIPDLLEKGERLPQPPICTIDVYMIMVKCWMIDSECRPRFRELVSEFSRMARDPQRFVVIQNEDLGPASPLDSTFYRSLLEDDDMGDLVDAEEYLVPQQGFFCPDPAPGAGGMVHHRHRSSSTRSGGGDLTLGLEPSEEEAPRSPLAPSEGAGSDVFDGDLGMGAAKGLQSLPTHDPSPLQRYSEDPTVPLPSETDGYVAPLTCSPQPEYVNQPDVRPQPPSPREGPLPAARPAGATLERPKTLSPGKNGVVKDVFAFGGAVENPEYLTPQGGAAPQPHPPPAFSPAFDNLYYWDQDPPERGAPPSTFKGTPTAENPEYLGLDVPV
Gamma-aminobutyric acid receptor subunit alpha-1, sequence (P62813 whole entry): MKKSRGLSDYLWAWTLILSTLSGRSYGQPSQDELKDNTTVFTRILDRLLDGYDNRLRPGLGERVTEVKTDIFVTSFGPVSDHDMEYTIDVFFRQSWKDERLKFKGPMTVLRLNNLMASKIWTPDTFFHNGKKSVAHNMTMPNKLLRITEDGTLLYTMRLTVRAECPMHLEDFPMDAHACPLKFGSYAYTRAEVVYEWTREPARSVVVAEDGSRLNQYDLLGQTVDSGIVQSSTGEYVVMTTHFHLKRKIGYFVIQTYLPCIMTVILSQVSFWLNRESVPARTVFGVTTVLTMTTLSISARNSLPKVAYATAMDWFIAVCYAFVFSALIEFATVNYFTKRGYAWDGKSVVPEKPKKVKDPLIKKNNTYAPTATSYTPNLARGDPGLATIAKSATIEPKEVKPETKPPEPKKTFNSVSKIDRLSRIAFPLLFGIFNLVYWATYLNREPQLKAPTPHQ

Row | SMILES | AC50 (Glucocorticoid receptor [1]) | AC50 [2] | AC50 [3] | AC50 (Glucocorticoid receptor [4]) | AC50 [5] | AC50 [6] | AC50 [7] | AC50 [8] | AC50 (Progesterone receptor)
1 | CN1CC2c3ccccc3Oc3ccc(Cl)cc3C2C1 (stereo not given) [ASENAPINE] | > 30 µM | > 30 µM | > 30 µM | > 30 µM | > 30 µM | 6.5 µM | > 30 µM |  | 
2 | CCC[C@@]1(CCc2ccccc2)CC(O)=C([C@H](CC)c2cccc(NS(=O)(=O)c3ccc(C(F)(F)F)cn3)c2)C(=O)O1 | > 30 µM | > 30 µM | 6.9 µM | > 30 µM | > 30 µM | 22 µM | > 30 µM |  | 
3 | O=C1[C@@H]2[C@H]3CC[C@H](C3)[C@@H]2C(=O)N1C[C@@H]1CCCC[C@H]1CN1CCN(c2nsc3ccccc23)CC1 [LURASIDONE] | > 10 µM | > 30 µM | > 30 µM | > 10 µM | > 30 µM | > 30 µM | > 30 µM |  | 
4 | C[C@H](Nc1ncnc2[nH]cnc12)c1cc2cccc(Cl)c2c(=O)n1-c1ccccc1 [DUVELISIB] | > 30 µM | > 30 µM | > 30 µM | > 30 µM | > 30 µM | > 30 µM | > 30 µM | > 30 µM | 
5 | c1cnc2cc3c(cc2n1)[C@@H]1CNC[C@H]3C1 [VARENICLINE] |  | > 30 µM | > 30 µM |  | > 30 µM | > 30 µM | > 30 µM |  | 
6 | Cn1cnc2c(F)c(Nc3ccc(Br)cc3F)c(C(=O)NOCCO)cc21 [BINIMETINIB] | > 30 µM | > 30 µM | > 30 µM | > 30 µM | > 30 µM | > 30 µM | > 30 µM |  | 
7 | Nc1c2c(nc3ccccc13)CCCC2O (stereo not given) [VELNACRINE] | > 30 µM | > 30 µM | > 30 µM | 14 µM | > 30 µM | > 30 µM | > 30 µM |  | 
8 | C[C@H](CCC(=O)O)[C@H]1CC[C@H]2[C@@H]3[C@H](O)C[C@@H]4C[C@H](O)CC[C@]4(C)[C@H]3CC[C@]12C [CHENODIOL] |  | > 30 µM | > 30 µM |  | > 30 µM | > 30 µM | > 30 µM |  | 
9 | COc1cc2c(cc1OC)C1CC(=O)C(CC(C)C)CN1CC2 (stereo not given) [TETRABENAZINE] |  | > 30 µM | > 30 µM |  | > 30 µM | > 30 µM | > 30 µM |  | 
10 | NCC1(CC(=O)O)CCCCC1 [GABAPENTIN] | > 30 µM | > 30 µM | > 30 µM | > 30 µM | > 30 µM | > 30 µM | > 30 µM |  | > 30 µM
11 | C[C@@H](O)[C@H]1C(=O)N2C(C(=O)O)=C(SCCN=CN)C[C@H]12 [IMIPENEM ANHYDROUS] | > 300 µM | > 300 µM | > 300 µM | > 300 µM | > 300 µM | > 2400 µM | > 300 µM |  | 
12 | CO[C@@H]1[C@@H](OC(N)=O)[C@@H](O)[C@H](Oc2ccc3c(O)c(NC(=O)c4ccc(O)c(CC=C(C)C)c4)c(=O)oc3c2C)OC1(C)C [NOVOBIOCIN] | > 30 µM | > 30 µM | > 30 µM | > 30 µM | > 30 µM | > 30 µM | > 30 µM |  | 
